How the values were obtained:
Experiment in all cases: KINOMEscan (ScanMAX) kinase profiling
Format in all cases: binding
[1] = biological target: T1, panel of 468 kinases (Homo sapiens, UniProt P15735); conditions: PHKG2; 1 μM; read-out: % control
T1 construct: purchased KINOMEscan (ScanMAX) service
T1 sequence (P15735 1-406): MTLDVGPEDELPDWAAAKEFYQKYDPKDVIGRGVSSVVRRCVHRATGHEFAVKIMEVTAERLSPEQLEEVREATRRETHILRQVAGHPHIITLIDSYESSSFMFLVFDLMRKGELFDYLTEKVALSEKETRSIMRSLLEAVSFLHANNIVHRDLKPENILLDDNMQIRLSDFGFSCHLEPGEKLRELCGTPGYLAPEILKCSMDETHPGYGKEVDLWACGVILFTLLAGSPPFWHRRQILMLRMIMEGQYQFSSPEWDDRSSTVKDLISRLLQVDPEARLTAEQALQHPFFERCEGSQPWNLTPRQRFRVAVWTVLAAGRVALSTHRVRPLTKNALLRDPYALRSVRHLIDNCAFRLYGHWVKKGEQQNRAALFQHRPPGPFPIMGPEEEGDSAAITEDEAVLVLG

[2] = biological target: T2, panel of 468 kinases (Homo sapiens, UniProt P31152); conditions: ERK4; 1 μM; read-out: % control
T2 construct: purchased KINOMEscan (ScanMAX) service
T2 sequence (P31152 whole entry): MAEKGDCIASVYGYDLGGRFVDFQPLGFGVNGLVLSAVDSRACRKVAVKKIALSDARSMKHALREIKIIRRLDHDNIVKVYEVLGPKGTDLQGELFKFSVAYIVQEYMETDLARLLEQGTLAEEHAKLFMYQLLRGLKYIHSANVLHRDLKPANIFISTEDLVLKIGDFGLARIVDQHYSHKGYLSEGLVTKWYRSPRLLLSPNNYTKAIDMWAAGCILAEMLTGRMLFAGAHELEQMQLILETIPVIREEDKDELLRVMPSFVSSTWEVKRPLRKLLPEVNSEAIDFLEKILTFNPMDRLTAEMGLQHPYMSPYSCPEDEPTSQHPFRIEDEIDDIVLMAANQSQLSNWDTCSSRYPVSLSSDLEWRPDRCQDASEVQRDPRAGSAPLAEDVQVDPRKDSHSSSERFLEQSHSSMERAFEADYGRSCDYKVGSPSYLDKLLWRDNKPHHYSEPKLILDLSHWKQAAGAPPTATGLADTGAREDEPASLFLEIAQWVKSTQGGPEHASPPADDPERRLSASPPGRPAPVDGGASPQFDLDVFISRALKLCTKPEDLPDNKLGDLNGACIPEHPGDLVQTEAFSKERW

[3] = biological target: T3, panel of 468 kinases (Homo sapiens, UniProt P42681); conditions: TXK; 1 μM; read-out: % control
T3 construct: purchased KINOMEscan (ScanMAX) service
T3 sequence (P42681 1-527): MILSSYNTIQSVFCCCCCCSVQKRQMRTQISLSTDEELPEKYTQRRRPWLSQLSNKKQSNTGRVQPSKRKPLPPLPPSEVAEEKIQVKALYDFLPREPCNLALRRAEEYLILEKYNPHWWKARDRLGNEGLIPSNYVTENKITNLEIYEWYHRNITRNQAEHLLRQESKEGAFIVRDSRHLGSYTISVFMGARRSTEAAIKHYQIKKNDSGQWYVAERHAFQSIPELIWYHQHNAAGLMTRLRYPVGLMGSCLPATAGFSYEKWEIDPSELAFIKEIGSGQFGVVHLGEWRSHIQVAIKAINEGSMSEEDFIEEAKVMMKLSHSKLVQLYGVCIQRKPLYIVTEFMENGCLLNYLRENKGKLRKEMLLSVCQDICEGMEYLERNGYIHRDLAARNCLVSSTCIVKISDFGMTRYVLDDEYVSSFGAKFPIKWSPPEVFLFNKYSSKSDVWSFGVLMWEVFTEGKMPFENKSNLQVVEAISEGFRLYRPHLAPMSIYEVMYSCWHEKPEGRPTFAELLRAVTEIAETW

[4] = biological target: T4, panel of 468 kinases (Homo sapiens, UniProt P48730); conditions: CSNK1D; 1 μM; read-out: % control
T4 construct: purchased KINOMEscan (ScanMAX) service
T4 sequence (P48730 whole entry): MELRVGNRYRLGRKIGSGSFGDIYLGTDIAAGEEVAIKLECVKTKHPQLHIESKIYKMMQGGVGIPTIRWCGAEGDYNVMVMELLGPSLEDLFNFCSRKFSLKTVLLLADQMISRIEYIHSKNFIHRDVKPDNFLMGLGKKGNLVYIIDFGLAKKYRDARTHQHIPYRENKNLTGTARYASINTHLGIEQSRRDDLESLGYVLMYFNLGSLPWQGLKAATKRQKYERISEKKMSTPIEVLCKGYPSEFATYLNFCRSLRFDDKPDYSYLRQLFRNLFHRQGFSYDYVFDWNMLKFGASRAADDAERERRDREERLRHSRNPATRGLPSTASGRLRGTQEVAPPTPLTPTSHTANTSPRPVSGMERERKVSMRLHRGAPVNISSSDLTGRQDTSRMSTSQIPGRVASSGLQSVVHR

[5] = biological target: T5, panel of 468 kinases (Homo sapiens, UniProt P51817); conditions: PRKX; 1 μM; read-out: % control
T5 construct: purchased KINOMEscan (ScanMAX) service
T5 sequence (P51817 1-358): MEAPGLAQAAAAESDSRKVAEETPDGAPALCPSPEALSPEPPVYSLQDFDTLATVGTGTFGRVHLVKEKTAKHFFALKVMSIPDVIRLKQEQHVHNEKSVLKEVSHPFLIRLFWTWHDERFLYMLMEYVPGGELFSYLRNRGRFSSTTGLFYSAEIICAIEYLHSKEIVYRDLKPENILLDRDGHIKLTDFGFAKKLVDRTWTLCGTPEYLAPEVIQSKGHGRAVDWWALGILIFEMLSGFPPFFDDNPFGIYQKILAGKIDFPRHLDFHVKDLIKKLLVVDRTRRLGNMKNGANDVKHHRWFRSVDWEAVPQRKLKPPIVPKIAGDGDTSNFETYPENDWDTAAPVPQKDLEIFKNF

[6] = biological target: T6, panel of 468 kinases (Homo sapiens, UniProt Q00537); conditions: PCTK2; 1 μM; read-out: % control
T6 construct: purchased KINOMEscan (ScanMAX) service
T6 sequence (Q00537 whole entry): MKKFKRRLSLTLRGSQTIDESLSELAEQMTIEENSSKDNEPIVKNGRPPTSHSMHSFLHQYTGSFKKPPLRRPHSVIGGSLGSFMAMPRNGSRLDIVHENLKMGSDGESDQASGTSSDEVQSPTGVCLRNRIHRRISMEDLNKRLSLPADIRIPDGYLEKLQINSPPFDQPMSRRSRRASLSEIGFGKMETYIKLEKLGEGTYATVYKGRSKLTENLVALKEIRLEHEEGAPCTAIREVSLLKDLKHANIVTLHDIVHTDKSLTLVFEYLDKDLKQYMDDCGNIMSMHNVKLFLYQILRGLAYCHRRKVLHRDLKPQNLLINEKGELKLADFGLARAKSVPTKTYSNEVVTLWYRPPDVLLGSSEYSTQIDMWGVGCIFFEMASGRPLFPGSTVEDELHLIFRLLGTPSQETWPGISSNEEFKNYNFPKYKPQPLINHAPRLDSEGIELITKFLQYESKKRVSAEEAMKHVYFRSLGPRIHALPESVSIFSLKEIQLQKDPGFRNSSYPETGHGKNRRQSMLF

[7] = biological target: T7, panel of 468 kinases (Homo sapiens, UniProt Q13882); conditions: BRK; 1 μM; read-out: % control
T7 construct: purchased KINOMEscan (ScanMAX) service
T7 sequence (Q13882 whole entry): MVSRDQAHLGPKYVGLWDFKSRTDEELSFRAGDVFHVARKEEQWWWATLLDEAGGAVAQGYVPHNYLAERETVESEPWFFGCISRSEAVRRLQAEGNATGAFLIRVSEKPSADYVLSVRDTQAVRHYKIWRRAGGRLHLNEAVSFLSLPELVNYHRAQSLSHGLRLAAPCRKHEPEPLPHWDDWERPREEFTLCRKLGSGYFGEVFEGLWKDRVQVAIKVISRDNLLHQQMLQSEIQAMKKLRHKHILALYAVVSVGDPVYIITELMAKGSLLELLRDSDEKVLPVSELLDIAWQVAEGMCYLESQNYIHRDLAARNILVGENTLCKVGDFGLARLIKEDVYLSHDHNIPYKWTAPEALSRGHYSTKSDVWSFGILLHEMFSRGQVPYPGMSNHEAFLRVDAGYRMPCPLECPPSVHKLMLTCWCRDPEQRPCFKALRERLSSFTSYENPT

[8] = biological target: T8, panel of 468 kinases (Homo sapiens, UniProt Q9UQB9); conditions: AURKC; 1 μM; read-out: % control
T8 construct: purchased KINOMEscan (ScanMAX) service
T8 sequence (Q9UQB9 1-309): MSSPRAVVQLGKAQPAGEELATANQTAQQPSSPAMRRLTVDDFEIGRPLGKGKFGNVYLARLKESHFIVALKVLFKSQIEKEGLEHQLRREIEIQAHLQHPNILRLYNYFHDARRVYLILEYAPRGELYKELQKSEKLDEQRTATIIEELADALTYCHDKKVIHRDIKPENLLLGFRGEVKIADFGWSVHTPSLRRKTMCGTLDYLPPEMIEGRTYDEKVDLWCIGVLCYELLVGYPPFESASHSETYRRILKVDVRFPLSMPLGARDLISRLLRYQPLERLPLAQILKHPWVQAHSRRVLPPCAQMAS

CNc1nc(Nc2ccc(C(=O)N3CCC(N4CCOCC4)CC3)c3c2OCO3)nc2[nH]cc(Cl)c12 [Compound 75, (7-((5-chloro-4-(methylamino)-7H-pyrrolo[2,3-d]pyrimidin-2-yl)amino)benzo[d][1,3]dioxol-4-yl)(4-morpholinopiperidin-1-yl)methanone] was tested, and the remaining binding at 1 µM [1] was 5.3%, the remaining binding at 1 µM [2] was 100% and the remaining binding at 1 µM [3] was 87%. The remaining binding at 1 µM [4] was 15%, the remaining binding at 1 µM [5] was 92% and the remaining binding at 1 µM [6] was 100%. For the same compound, the remaining binding at 1 µM [7] was 99% and the remaining binding at 1 µM [8] was 56%.
With CNc1nc(Nc2ccc(S(=O)(=O)N3CCC(N4CCOCC4)CC3)cc2OC)nc2[nH]cc(Cl)c12 [Compound 12, 5-chloro-N2-(2-methoxy-4-((4-morpholinopiperidin-1-yl)sulfonyl)phenyl)-N4-methyl-7H-pyrrolo[2,3-d]pyrimidine-2,4-diamine] the remaining binding at 1 µM [1] was 11%, the remaining binding at 1 µM [2] was 100% and the remaining binding at 1 µM [3] was 100%. The remaining binding at 1 µM [4] was 9.5%, the remaining binding at 1 µM [5] was 87% and the remaining binding at 1 µM [6] was 100%. It also gave a remaining binding at 1 µM [7] of 100% and a remaining binding at 1 µM [8] of 100%.
With CNc1nc(Nc2ccc(P3(=O)CCN(C4CCOCC4)CC3)cc2OC)nc2[nH]cc(Cl)c12 [Compound 77, 4-(4-((5-chloro-4-(methylamino)-7H-pyrrolo[2,3-d]pyrimidin-2-yl)amino)-3-methoxyphenyl)-1-(tetrahydro-2H-pyran-4-yl)-1,4-azaphosphinane 4-oxide] the remaining binding at 1 µM [1] was 1.9%, the remaining binding at 1 µM [2] was 100% and the remaining binding at 1 µM [3] was 98%. It also gave a remaining binding at 1 µM [4] of 8.9%, a remaining binding at 1 µM [5] of 96% and a remaining binding at 1 µM [6] of 100%. The remaining binding at 1 µM [7] was 94% and the remaining binding at 1 µM [8] was 100%.
